Laboratory results published in US20250179061A1 (SIRONAX LTD., priority 2022, published 2025).

test system: HT-29 cells; assay: HT-29 necroptosis cell viability assay (TNF-α/SMAC mimetic/zVAD-FMK, CellTiter-Glo); format: cell-based; conditions: Homo sapiens, HT-29, HT-29 cells, necroptosis induced by TNF-α/SMAC mimetic/zVAD-FMK, CellTiter-Glo; read-out: Activity (IC50 class)
In short: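 HT-29 cells (~5,000/well, overnight) in FBS-free McCoy's 5A with TNF-α 10 ng/ml, SMAC mimetic 6 μM and zVAD-FMK 10 μM plus 10-point 1:3 compound titration, 20 h at 37°C. ATP measured by CellTiter-Glo luminescence; IC50 as geometric mean of duplicates.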

| SMILES | IC50 [nM] |
| --- | --- |
| O=c1n(Cc2c(F)cccc2F)cnn1-c1ccc(Oc2cncs2)cc1 [Example 658] | < 100 |

same assay, conditions: Homo sapiens, HT-29, HT-29 necroptosis cell viability assay; class symbols for IC50; read-out: Activity

| SMILES | IC50 [nM] |
| --- | --- |
| CCOC1(C)CN(c2cc(Oc3ccc(-n4ncn(Cc5c(F)cccc5Cl)c4=O)cc3)ccn2)C1 [Example 489, 4-(2-chloro-6-fluorobenzyl)-2-(4-((2-(3-ethoxy-3-methylazetidin-1-yl)pyridin-4-yl)oxy)phenyl)-2,4-dihydro-3H-1,2,4-triazol-3-one] | 100 to 1000 |
| Cc1nc(C(N)=O)sc1Oc1ccc(-n2ncn(Cc3c(F)cccc3F)c2=O)cc1 [Example 560, 5-(4-(4-(2,6-difluorobenzyl)-5-oxo-4,5-dihydro-1H-1,2,4-triazol-1-yl)phenoxy)-4-methylthiazole-2-carboxamide] | < 100 |
| O=c1n(Cc2c(F)cccc2F)cnn1C1CCC(Oc2ccccc2)C1 (centres unmarked) [Example 161, 4-(2,6-difluorobenzyl)-2-(3-phenoxycyclopentyl)-2,4-dihydro-3H-1,2,4-triazol-3-one] | 1000 to 10000 |
| Cc1nc(C2CCNC2)sc1Oc1ccc(-n2ncn(Cc3c(F)cccc3F)c2=O)cc1 (centres unmarked) [Example 549, 4-(2,6-difluorobenzyl)-2-(4-((4-methyl-2-(pyrrolidin-3-yl)thiazol-5-yl)oxy)phenyl)-2,4-dihydro-3H-1,2,4-triazol-3-one] | < 100 |
| CC1(CN)CN(c2cc(Oc3ccc(-n4ncn(Cc5c(F)cccc5F)c4=O)cc3F)c(F)cn2)C1 [Example 555, 2-(4-((2-(3-(aminomethyl)-3-methylazetidin-1-yl)-5-fluoropyridin-4-yl)oxy)-3-fluorophenyl)-4-(2,6-difluorobenzyl)-2,4-dihydro-3H-1,2,4-triazol-3-one] | < 100 |
| Cc1csc(Cn2cnn(-c3ccc(Oc4sc(C(C)(C)O)nc4C)c(F)c3)c2=O)n1 [Example 578, 2-(3-fluoro-4-((2-(2-hydroxypropan-2-yl)-4-methylthiazol-5-yl)oxy)phenyl)-4-((4-methylthiazol-2-yl)methyl)-2,4-dihydro-3H-1,2,4-triazole-3-one] | 100 to 1000 |
| Cc1nn(-c2ccc(S(=O)(=O)N3CCN(CC4CCOC4)CC3)cc2)c(=O)n1Cc1ccccc1 (centres unmarked) [Example 625, 4-benzyl-5-methyl-2-(4-((4-((tetrahydrofuran-3-yl)methyl)piperazin-1-yl)sulfonyl)phenyl)-2,4-dihydro-3H-1,2,4-triazol-3-one] | 100 to 1000 |
| O=c1n(Cc2c(F)cccc2F)cnn1-c1ccc(Oc2ccnc(NCC3CCCO3)c2)cc1 (centres unmarked) [Example 484, 4-(2,6-difluorobenzyl)-2-(4-((2-(((tetrahydrofuran-2-yl)methyl)amino)pyridin-4-yl)oxy)phenyl)-2,4-dihydro-3H-1,2,4-triazol-3-one] | 100 to 1000 |
| Cc1nc(C(=O)N2CC(C)(O)C2)sc1Oc1ccc(-n2ncn(Cc3ncccc3F)c2=O)cc1F [Example 608, 2-(3-fluoro-4-((2-(3-hydroxy-3-methylazetidine-1-carbonyl)-4-methylthiazol-5-yl)oxy)phenyl)-4-((3-fluoropyridin-2-yl)methyl)-2,4-dihydro-3H-1,2,4-triazol-3-one] | < 100 |

same assay, conditions: Homo sapiens, HT-29, HT-29 necroptosis cell viability, IC50 class symbols; read-out: Activity

| SMILES | IC50 [nM] |
| --- | --- |
| CCOC1CN(c2cc(Oc3ccc(-n4ncn(Cc5c(F)cccc5F)c4=O)cc3)c(C)cn2)C1 [Example 266, 4-(2,6-difluorobenzyl)-2-(4-((2-(3-ethoxyazetidin-1-yl)-5-methylpyridin-4-yl)oxy)phenyl)-2,4-dihydro-3H-1,2,4-triazol-3-one] | < 100 |
| Nc1cc(Oc2ccc(-n3ncn(Cc4c(F)cccc4F)c3=O)cc2)ccn1 [Example 310, 2-(4-((2-aminopyridin-4-yl)oxy)phenyl)-4-(2,6-difluorobenzyl)-2,4-dihydro-3H-1,2,4-triazol-3-one] | 100 to 1000 |
| CC(C)(N)C1CN(c2cc(Oc3ccc(-n4ncn(Cc5c(F)cccc5F)c4=O)cc3F)c(F)cn2)C1 [Example 374, 2-(4-((2-(3-(2-aminopropan-2-yl)azetidin-1-yl)-5-fluoropyridin-4-yl)oxy)-3-fluorophenyl)-4-(2,6-difluorobenzyl)-2,4-dihydro-3H-1,2,4-triazol-3-one] | 100 to 1000 |
| O=c1n(Cc2c(F)cccc2F)cnn1-c1ccc(Oc2ccnc(N3CCC34CNC4)c2)cc1 [Example 379, 2-(4-((2-(1,6-diazaspiro[3.3]heptan-1-yl)pyridin-4-yl)oxy)phenyl)-4-(2,6-difluorobenzyl)-2,4-dihydro-3H-1,2,4-triazol-3-one] | 100 to 1000 |
| C[C@@H]1[C@H](C#N)CN1c1nccc(Oc2ccc(-n3ncn(Cc4c(F)cccc4F)c3=O)cc2F)c1F [Example 389, (2R,3R)-1-(4-(4-(4-(2,6-difluorobenzyl)-5-oxo-4,5-dihydro-1H-1,2,4-triazol-1-yl)-2-fluorophenoxy)-3-fluoropyridin-2-yl)-2-methylazetidine-3-carbonitrile] | < 100 |
| N#CC12CC(Nc3nccc(Oc4ccc(-n5ncn(Cc6c(F)cccc6F)c5=O)cc4)c3F)(C1)C2 [Example 361, 3-((4-(4-(4-(2,6-difluorobenzyl)-5-oxo-4,5-dihydro-1H-1,2,4-triazol-1-yl)phenoxy)-3-fluoropyridin-2-yl)amino)bicyclo[1.1.1]pentane-1-carbonitrile] | 100 to 1000 |
| O=c1n(Cc2c(F)cccc2F)cnn1-c1ccc(Oc2ccnc(NCC3CCO3)c2)cc1 (centres unmarked) [Example 279, 4-(2,6-difluorobenzyl)-2-(4-((2-((oxetan-2-ylmethyl)amino)pyridin-4-yl)oxy)phenyl)-2,4-dihydro-3H-1,2,4-triazol-3-one] | 100 to 1000 |
| O=c1n(Cc2c(F)cccc2F)cnn1-c1ccc(Oc2cc(N3CCOCC3)ncc2F)c(F)c1 [Example 283, 4-(2,6-difluorobenzyl)-2-(3-fluoro-4-((5-fluoro-2-morpholinopyridin-4-yl)oxy)phenyl)-2,4-dihydro-3H-1,2,4-triazol-3-one] | < 100 |
| C[C@H](Nc1cc(Oc2ccc(-n3ncn(Cc4c(F)cccc4F)c3=O)cc2)ccn1)C1CCC1 [Example 349, (S)-2-(4-((2-((1-cyclobutylethyl)amino)pyridin-4-yl)oxy)phenyl)-4-(2,6-difluorobenzyl)-2,4-dihydro-3H-1,2,4-triazol-3-one] | 100 to 1000 |
| N#CC12CC(Nc3cc(Oc4ccc(-n5ncn(Cc6c(F)cccc6F)c5=O)cc4)c(Cl)cn3)(C1)C2 [Example 325, 3-((5-chloro-4-(4-(4-(2,6-difluorobenzyl)-5-oxo-4,5-dihydro-1H-1,2,4-triazol-1-yl)phenoxy)pyridin-2-yl)amino)bicyclo[1.1.1]pentane-1-carbonitrile] | < 100 |
| CC(C)(C)CCNc1cc(Oc2ccc(-n3ncn(Cc4c(F)cccc4F)c3=O)cc2)ccn1 [Example 385, 4-(2,6-difluorobenzyl)-2-(4-((2-((3,3-dimethylbutyl)amino)pyridin-4-yl)oxy)phenyl)-2,4-dihydro-3H-1,2,4-triazol-3-one] | 1000 to 10000 |

same assay, conditions: Homo sapiens; HT-29 cells stimulated with TNF-α (10 ng/ml), SMAC mimetic (6 μM) and zVAD-FMK (10 μM); 20 hours; CellTiter-Glo ATP luminescence; geometric mean IC50 from 10 points; read-out: Activity

| SMILES | IC50 [nM] |
| --- | --- |
| Cc1nc(N2CC(C)(OC(F)(F)F)C2)sc1Oc1ccc(-n2ncn(Cc3c(F)cccc3F)c2=O)cc1 [Example 57, 4-(2,6-difluorobenzyl)-2-(4-((4-methyl-2-(3-methyl-3-(trifluoromethoxy)azetidin-1-yl)thiazol-5-yl)oxy)phenyl)-2,4-dihydro-3H-1,2,4-triazol-3-one] | < 100 |
| Cc1oc(C(N)=O)nc1Oc1ccc(-n2nc3n(c2=O)[C@H](c2ccccc2)CC3)cc1F (single isomer, unassigned) [Example 696] | < 100 |
